In PubChem BioAssay AID1117352:
pIC50: −log10 of the molar value. Active and inactive are the calls of the source. The rule behind the calls is not given here.

What follows are compounds tested on DLD-1 viability, CellTiter-Glo ATP luminescence (assay: Dose-response reduction of DLD-1 viability by CellTiter-Glo luminescence, IC50 (AID 1117352)).
For `O=C(O)C1(C(=O)O)CCC1.[NH2-].[NH2-].[Pt+2]`, the IC50 was > 20000 nM (inactive).
`O=C1[O][Bi][O]c2ccccc21` was tested, and the IC50 was > 20000 nM (inactive).
In the case of `OCCN1CCN(CC/C=C2/c3ccccc3Sc3ccc(C(F)(F)F)cc32)CC1`, the pIC50 was 5.83.
`Cc1ccc([N+](=O)[O-])[c]2c1[O][Hg]2` showed a pIC50 of 5.79.
In the case of `CCCCCCCCCCCCCC[N+](C)(C)C`, the pIC50 was 6.32.
Work on `CC(=O)[O][Hg][c]1ccccc1` yielded a pIC50 of 6.13.
